The text below walks through data of patent publication US8906944B2, “Compounds as tyrosine kinase modulators” (Allergan, Inc., priority 2009, dated 2014).

Holding throughout (type): biochemical
For test [1], the target named is T1, human VEGF receptor (VEGFR-2) (Homo sapiens, UniProt P35968).
T1 construct: The cytoplasmic domain of the human VEGF receptor (VEGFR-2) was expressed; His; made in house; host or cells: insect cells (baculovirus)
Kind of test: VEGFR2 kinase assay. The settings on record: His-VEGFR-2 cytoplasmic domain, 3.6 μM ATP; Table IV, amide or urea linker; read-out: VEGFR2 Enzyme IC50. As to the method:
The cytoplasmic domain of the human VEGF receptor (VEGFR-2) was expressed as a Histidine-tagged fusion protein following infection of insect cells using an H is engineered baculovirus. […] Kinase assays were performed in 96 well microtiter plates that were coated overnight with 30 µg of poly-Glu-Tyr (4:1) in 10 mM Phosphate Buffered Saline (PBS), pH 7.2-7.4. The plates were incubated with 1% BSA and then washed four times with PBS prior to starting the reaction. Reactions were carried out in 120 µL reaction volumes containing 3.6 µM ATP in kinase buffer (50 mM Hepes buffer pH 7.4, 20 mM MgCl2, 0.1 mM MnCl2 and 0.2 mM Na3 VO4). […] Reactions were initiated by the addition 0.5 ng of purified protein. Following a ten minute incubation at 25 degree. […] IC50 values for compound inhibition were calculated directly from graphs of optical density (arbitrary units) versus compound concentration following subtraction of blank values.

Another test concerns the target PDGFβ (Homo sapiens, UniProt P09619). Kind of test: PDGFβ enzyme assay. The settings on record: Table IV, amide or urea linker.
The target in another test is VEGFR1 (Homo sapiens, UniProt P17948). Description: VEGFR1 enzyme assay. The settings on record: Table IV, amide or urea linker.
Chain of VEGFR1 (P17948 27-1338, species assumed): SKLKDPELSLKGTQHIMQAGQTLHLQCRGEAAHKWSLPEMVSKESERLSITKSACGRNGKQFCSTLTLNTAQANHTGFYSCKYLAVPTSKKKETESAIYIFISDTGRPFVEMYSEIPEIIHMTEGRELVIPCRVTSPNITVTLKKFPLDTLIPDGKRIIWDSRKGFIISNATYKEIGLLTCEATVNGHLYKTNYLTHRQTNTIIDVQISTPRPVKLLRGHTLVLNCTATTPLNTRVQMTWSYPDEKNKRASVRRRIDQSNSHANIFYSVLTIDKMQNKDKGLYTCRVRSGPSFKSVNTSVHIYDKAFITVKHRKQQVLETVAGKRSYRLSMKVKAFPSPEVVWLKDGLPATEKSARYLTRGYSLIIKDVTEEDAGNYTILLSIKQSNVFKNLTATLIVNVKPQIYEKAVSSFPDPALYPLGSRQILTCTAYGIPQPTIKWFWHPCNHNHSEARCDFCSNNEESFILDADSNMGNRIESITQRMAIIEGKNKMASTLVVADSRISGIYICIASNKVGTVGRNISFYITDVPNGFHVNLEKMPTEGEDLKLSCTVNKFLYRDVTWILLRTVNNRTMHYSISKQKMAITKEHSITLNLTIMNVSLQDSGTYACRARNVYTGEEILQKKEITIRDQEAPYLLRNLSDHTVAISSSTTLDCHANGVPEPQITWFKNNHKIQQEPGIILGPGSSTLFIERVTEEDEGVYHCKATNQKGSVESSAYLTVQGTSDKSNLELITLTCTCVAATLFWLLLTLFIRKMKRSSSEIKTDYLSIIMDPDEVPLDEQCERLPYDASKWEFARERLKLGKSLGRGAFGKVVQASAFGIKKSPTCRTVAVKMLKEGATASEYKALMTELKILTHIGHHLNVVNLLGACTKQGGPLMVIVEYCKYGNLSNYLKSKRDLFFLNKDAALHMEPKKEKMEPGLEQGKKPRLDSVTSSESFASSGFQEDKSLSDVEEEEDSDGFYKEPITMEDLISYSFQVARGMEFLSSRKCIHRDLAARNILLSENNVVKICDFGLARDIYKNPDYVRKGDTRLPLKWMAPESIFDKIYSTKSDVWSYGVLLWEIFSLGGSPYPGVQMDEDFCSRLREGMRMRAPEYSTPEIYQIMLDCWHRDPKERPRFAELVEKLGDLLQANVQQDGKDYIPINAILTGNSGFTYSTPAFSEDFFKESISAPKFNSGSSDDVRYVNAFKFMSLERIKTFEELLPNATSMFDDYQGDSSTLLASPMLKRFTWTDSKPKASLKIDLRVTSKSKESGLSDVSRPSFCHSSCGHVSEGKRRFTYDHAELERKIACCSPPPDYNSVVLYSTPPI

Chain of PDGFβ (P09619 33-1106): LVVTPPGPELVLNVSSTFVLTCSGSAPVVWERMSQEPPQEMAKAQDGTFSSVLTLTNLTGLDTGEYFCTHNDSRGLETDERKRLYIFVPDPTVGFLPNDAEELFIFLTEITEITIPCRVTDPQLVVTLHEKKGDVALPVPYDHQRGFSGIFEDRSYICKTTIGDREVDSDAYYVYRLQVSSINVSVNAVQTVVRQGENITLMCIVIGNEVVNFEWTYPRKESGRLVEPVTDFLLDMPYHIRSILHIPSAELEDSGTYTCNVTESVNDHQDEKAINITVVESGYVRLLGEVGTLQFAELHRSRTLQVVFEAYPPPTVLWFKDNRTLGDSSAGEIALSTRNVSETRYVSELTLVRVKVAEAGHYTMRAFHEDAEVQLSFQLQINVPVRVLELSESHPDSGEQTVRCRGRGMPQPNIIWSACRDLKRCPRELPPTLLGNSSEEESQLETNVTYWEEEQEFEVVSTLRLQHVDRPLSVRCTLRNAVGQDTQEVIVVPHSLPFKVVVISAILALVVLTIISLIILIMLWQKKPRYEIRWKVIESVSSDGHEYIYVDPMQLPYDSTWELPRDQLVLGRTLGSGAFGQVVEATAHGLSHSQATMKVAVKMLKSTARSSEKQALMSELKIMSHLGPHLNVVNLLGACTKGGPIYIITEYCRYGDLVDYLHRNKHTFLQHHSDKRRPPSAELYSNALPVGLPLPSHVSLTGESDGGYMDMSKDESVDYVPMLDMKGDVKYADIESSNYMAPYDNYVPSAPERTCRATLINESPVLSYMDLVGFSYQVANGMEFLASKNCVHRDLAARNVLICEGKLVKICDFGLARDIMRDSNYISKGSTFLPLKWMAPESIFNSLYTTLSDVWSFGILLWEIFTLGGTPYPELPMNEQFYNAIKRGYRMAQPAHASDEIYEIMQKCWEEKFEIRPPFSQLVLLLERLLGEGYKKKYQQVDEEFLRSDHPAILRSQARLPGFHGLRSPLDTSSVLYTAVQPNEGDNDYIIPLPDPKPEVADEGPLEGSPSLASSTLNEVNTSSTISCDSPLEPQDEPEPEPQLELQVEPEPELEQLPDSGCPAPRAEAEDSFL
T1 sequence (P35968 786-1356 limits assumed): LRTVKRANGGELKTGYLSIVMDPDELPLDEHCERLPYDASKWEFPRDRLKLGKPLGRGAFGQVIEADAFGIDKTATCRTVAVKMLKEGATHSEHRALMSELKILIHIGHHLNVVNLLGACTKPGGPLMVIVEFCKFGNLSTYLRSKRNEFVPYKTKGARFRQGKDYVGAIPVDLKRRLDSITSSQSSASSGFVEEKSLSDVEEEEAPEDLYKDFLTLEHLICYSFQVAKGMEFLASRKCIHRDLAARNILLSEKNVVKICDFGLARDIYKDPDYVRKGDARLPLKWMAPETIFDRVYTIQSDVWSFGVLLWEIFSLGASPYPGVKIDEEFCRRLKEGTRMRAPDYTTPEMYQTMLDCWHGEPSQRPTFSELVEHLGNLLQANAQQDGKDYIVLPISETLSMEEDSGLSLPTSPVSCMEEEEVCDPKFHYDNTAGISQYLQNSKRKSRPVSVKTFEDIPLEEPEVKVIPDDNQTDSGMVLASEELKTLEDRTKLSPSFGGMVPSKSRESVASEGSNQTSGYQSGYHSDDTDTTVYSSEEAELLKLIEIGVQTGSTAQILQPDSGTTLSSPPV

For the compound `COC(=O)CCNC(=O)c1c[nH]c(-c2cc(Oc3ccc(NC(=O)Nc4cccc(C)c4)c(F)c3)ccn2)c1` [Example 174, methyl 3-{[(5-{4-[3-fluoro-4-({[(3-methylphenyl)amino]carbonyl}amino)phenoxy]pyridin-2-yl}-1H-pyrrol-3-yl)carbonyl]amino}propanoate], the IC50 was 8 nM in test [1] and 42 nM against PDGFβ.

`Cc1ccc(F)c(NC(=O)Nc2ccc(Oc3ccnc(-c4cc(C(=O)NCCCC(=O)NN)c[nH]4)c3)cc2)c1` [Example 177, 5-{4-[4-({[(2-fluoro-5-methylphenyl)amino]carbonyl}amino)phenoxy]pyridin-2-yl}-N-(4-hydrazino-4-oxobutyl)-1H-pyrrole-3-carboxamide]: the IC50 in test [1] was determined as 15 nM.

Consider `COC(=O)CN(CCCNC(=O)c1c[nH]c(-c2cc(Oc3cc(C(=O)Nc4cc(C)ccc4F)ccc3F)ccn2)c1)CC(=O)OC` [Example 178, dimethyl 2,2′-({3-[({5-[4-(2-fluoro-5-{[(2-fluoro-5-methylphenyl)amino]carbonyl}phenoxy)pyridin-2-yl]-1H-pyrrol-3-yl}carbonyl)amino]propyl}imino)diacetate], for which the figures for the IC50 (in test [1]; on VEGFR1) were 24 nM and 60 nM, respectively.

For `COC(=O)CN(CCNC(=O)c1c[nH]c(-c2cc(Oc3cc(C(=O)Nc4cc(C)ccc4F)ccc3F)ccn2)c1)CC(=O)OC` [Example 179, dimethyl 2,2′-({2-[({5-[4-(2-fluoro-5-{[(2-fluoro-5-methylphenyl)amino]carbonyl}phenoxy)pyridin-2-yl]-1H-pyrrol-3-yl}carbonyl)amino]ethyl}imino)diacetate], the figures for the IC50 (in test [1]; at VEGFR1) were 21 nM and 50 nM, respectively.

As for `Cc1ccc(F)c(NC(=O)c2ccc(F)c(Oc3ccnc(-c4cc(C(=O)NCCN)c[nH]4)c3)c2)c1` [Example 182, N-(2-aminoethyl)-5-[4-(2-fluoro-5-{[(2-fluoro-5-methylphenyl)amino]carbonyl}phenoxy)pyridin-2-yl]-1H-pyrrole-3-carboxamide], the IC50 was 33 nM in test [1] and 86 nM against VEGFR1.

On to `Cc1ccc(F)c(NC(=O)c2ccc(F)c(Oc3ccnc(-c4cc(C(=O)NCCNC(=O)OC(C)(C)C)c[nH]4)c3)c2)c1` [Example 183, tert-butyl {2-[({5-[4-(2-fluoro-5-{[(2-fluoro-5-methylphenyl)amino]carbonyl}phenoxy)pyridin-2-yl]-1H-pyrrol-3-yl}carbonyl)amino]ethyl}carbamate], for which the IC50 in test [1] turned out to be 24 nM; at VEGFR1, 100 nM.

Consider `Cc1ccc(F)c(NC(=O)Nc2ccc(Oc3ccnc(-c4cc(C(=O)N5CCC5)c[nH]4)c3)cc2)c1` [Example 185, 1-[4-({2-[4-(azetidin-1-ylcarbonyl)-1H-pyrrol-2-yl]pyridin-4-yl}oxy)phenyl]-3-(2-fluoro-5-methylphenyl)urea], for which the IC50 against VEGFR1 came out at 40 nM; against PDGFβ, 63 nM.

`Cc1ccoc1C(=O)Nc1cc(Oc2ccnc(-c3cc(C(=O)NCCCN4CCCCC4)c[nH]3)c2)ccc1F` [Example 191, 5-(4-{4-fluoro-3-[(3-methyl-2-furoyl)amino]phenoxy}pyridin-2-yl)-N-(3-piperidin-1-ylpropyl)-1H-pyrrole-3-carboxamide]: the IC50 stood at 25 nM in test [1] and 42 nM against VEGFR1.

Turning to `Cc1ccoc1C(=O)Nc1cc(Oc2ccnc(-c3cc(C(=O)NCCCN4CCCC4)c[nH]3)c2)ccc1F` [Example 192, 5-(4-{4-fluoro-3-[(3-methyl-2-furoyl)amino]phenoxy}pyridin-2-yl)-N-(3-pyrrolidin-1-ylpropyl)-1H-pyrrole-3-carboxamide], the values for the IC50 (in test [1]; against VEGFR1) were 26 nM and 34 nM, respectively.

With `Cc1ccoc1C(=O)Nc1cc(Oc2ccnc(-c3cc(C(=O)NCCCN4CCOCC4)c[nH]3)c2)ccc1F` [Example 194, 5-(4-{4-fluoro-3-[(3-methyl-2-furoyl)amino]phenoxy}pyridin-2-yl)-N-(3-morpholin-4-ylpropyl)-1H-pyrrole-3-carboxamide], the values for the IC50 (in test [1]; on VEGFR1) were 23 nM and 25 nM, respectively.

For `Cc1ccc(F)c(NC(=O)Nc2ccc(Oc3ccnc(-c4cc(C(=O)N5CCN(C(=O)OC(C)(C)C)CC5)c[nH]4)c3)cc2F)c1` [Example 224, tert-butyl 4-[(5-{4-[3-fluoro-4-({[(2-fluoro-5-methylphenyl)amino]carbonyl}amino)phenoxy]pyridin-2-yl}-1H-pyrrol-3-yl)carbonyl]piperazine-1-carboxylate], the IC50 in test [1] amounted to 10 nM; against VEGFR1 it was 21 nM.

For `Cc1ccc(F)c(NC(=O)Nc2ccc(Oc3ccnc(-c4cc(C(=O)NCCCN5CCCC5)c[nH]4)c3)cc2F)c1` [Example 226, 5-{4-[3-fluoro-4-({[(2-fluoro-5-methylphenyl)amino]carbonyl}amino)phenoxy]pyridin-2-yl}-N-(3-pyrrolidin-1-ylpropyl)-1H-pyrrole-3-carboxamide], the values for the IC50 (in test [1]; at VEGFR1) were 6 nM and 9 nM, respectively.

For the compound `COCCOC(=O)c1c[nH]c(-c2cc(Oc3ccc(NC(=O)Nc4cc(C)ccc4F)c(F)c3)ccn2)c1` [Example 227, 2-methoxyethyl 5-{4-[3-fluoro-4-({[(2-fluoro-5-methylphenyl)amino]carbonyl}amino)phenoxy]pyridin-2-yl}-1H-pyrrole-3-carboxylate], the IC50 came out at 9 nM in test [1] and 11 nM on VEGFR1.

As to `Cc1cccc(NC(=O)Nc2ccc(Oc3ccnc(-c4cc(C(=O)NCCCN5CCC(O)CC5)c[nH]4)c3)cc2)c1` [Example 235, N-[3-(4-hydroxypiperidin-1-yl)propyl]-5-{4-[4-({[(3-methylphenyl)amino]carbonyl}amino)phenoxy]pyridin-2-yl}-1H-pyrrole-3-carboxamide], the figures for the 50% inhibitory concentration (IC50) against VEGFR1 and on PDGFβ were 14 nM and 15 nM, respectively.

As for `Cc1cccc(NC(=O)Nc2ccc(Oc3ccnc(-c4cc(C(=O)OCC(CO)(CO)CO)c[nH]4)c3)cc2)c1` [Example 240, 3-hydroxy-2,2-bis(hydroxymethyl)propyl 5-{4-[4-({[(3-methylphenyl)amino]carbonyl}amino)phenoxy]pyridin-2-yl}-1H-pyrrole-3-carboxylate], in test [1], the IC50 turned out to be 7 nM.

Turning to `COC(=O)CC[C@H](NC(=O)c1c[nH]c(-c2cc(Oc3cc(C(=O)Nc4cc(C)ccc4F)ccc3F)ccn2)c1)C(=O)O` [Example 262, 2-[({5-[4-(2-fluoro-5-{[(2-fluoro-5-methylphenyl)amino]carbonyl}phenoxy)pyridin-2-yl]-1H-pyrrol-3-yl}carbonyl)amino]-5-methoxy-5-oxopentanoic acid], the IC50 in test [1] is 67 nM; against PDGFβ, 66 nM.

Take `CCNC(=O)CC[C@H](NC(=O)c1c[nH]c(-c2cc(Oc3ccc(NC(=O)Nc4cc(C)ccc4F)cc3)ccn2)c1)C(=O)NCC` [Example 263, N,N′-diethyl-2-{[(5-{4-[4-({[(2-fluoro-5-methylphenyl)amino]carbonyl}amino)phenoxy]pyridin-2-yl}-1H-pyrrol-3-yl)carbonyl]amino}pentanediamide]: the IC50 came out at 14 nM in test [1] and 46 nM against PDGFβ.

With `CCNC(=O)[C@H](CCC(=O)OC(C)(C)C)NC(=O)c1c[nH]c(-c2cc(Oc3cccc(NC(=O)c4occc4C)c3)ccn2)c1` [Example 265, tert-butyl 5-(ethylamino)-4-({[5-(4-{3-[(3-methyl-2-furoyl)amino]phenoxyl}pyridin-2-yl)-1H-pyrrol-3-yl]carbonyl}amino)-5-oxopentanoate], the IC50 in test [1] worked out at 18 nM.

Take `Cc1ccoc1C(=O)Nc1cccc(Oc2ccnc(-c3cc(C(=O)N[C@@H](CCC(=O)OC(C)(C)C)C(=O)O)c[nH]3)c2)c1` [Example 266, 5-tert-butoxy-2-({[5-(4-{3-[(3-methyl-2-furoyl)amino]phenoxy}pyridin-2-yl)-1H-pyrrol-3-yl]carbonyl}amino)-5-oxopentanoic acid]: the IC50 in test [1] amounted to 31 nM.

As for `Cc1ccc(F)c(NC(=O)Nc2ccc(Oc3ccnc(-c4cc(C(=O)NCCCN5CCC(C(=O)O)C5)c[nH]4)c3)cc2)c1` (centres unmarked) [Example 268, 1-(3-{[(5-{4-[4-({[(2-fluoro-5-methylphenyl)amino]carbonyl}amino)phenoxy]pyridin-2-yl}-1H-pyrrol-3-yl)carbonyl]amino}propyl)pyrrolidine-3-carboxylic acid], the IC50 in test [1] came to 15 nM.

Turning to `Cc1ccc(F)c(NC(=O)Nc2ccc(Oc3ccnc(-c4cc(C(=O)NCCCN5CCC(O)CC5)c[nH]4)c3)cc2)c1` [Example 272, 5-{4-[4-({[(2-fluoro-5-methylphenyl)amino]carbonyl}amino)phenoxy]pyridin-2-yl}-N-[3-(4-hydroxypiperidin-1-yl)propyl]-1H-pyrrole-3-carboxamide], in test [1], the IC50 was 19 nM.

For `Cc1cccc(NC(=O)c2ccc(F)c(Oc3ccnc(-c4cc(C(=O)NCCC(=O)O)c[nH]4)c3)c2)c1` [Example 275, 3-[({5-[4-(2-fluoro-5-{[(3-methylphenyl)amino]carbonyl}phenoxy)pyridin-2-yl]-1H-pyrrol-3-yl}carbonyl)amino]propanoic acid], the IC50 in test [1] worked out at 19 nM.

With `COC(=O)CCNC(=O)c1c[nH]c(-c2cc(Oc3cc(C(=O)Nc4cccc(C)c4)ccc3F)ccn2)c1` [Example 277, methyl 3-[({5-[4-(2-fluoro-5-{[(3-methylphenyl)amino]carbonyl}phenoxy)pyridin-2-yl]-1H-pyrrol-3-yl}carbonyl)amino]propanoate], the IC50 in test [1] was 13 nM.
